Reference: paper PMC10537229, “Antimicrobial Peptides Originating from Expression Libraries of Aurelia aurita and Mnemiopsis leidyi Prevent Biofilm Formation of Opportunistic Pathogens” (Microorganisms, 2023)
Entries after “also recorded” stand apart in the source; their conditions may differ.

Experiments:
K. oxytoca [1] = assay: Biofilm prevention in vitro assay (crystal violet, static); type: cell-based, Klebsiella oxytoca; settings: 18 h; for effect on K. oxytoca biofilm formation (in words) / reduction of K. oxytoca biofilm formation over concentration range: synthetic peptide 0.4-112.5 µg/mL; for reduction of K. oxytoca biofilm formation over concentration range: maximum or overall reduction; for reduction of K. oxytoca biofilm formation at 112.5 µg/mL: synthetic peptide at highest concentration 112.5 µg/mL
Protocol: (§1) The opportunistic pathogenic bacteria K. oxytoca (DSM 7342, M5a1-type strain), P. aeruginosa PAO1 (DSM 1707, pathogenic-type strain), S. epidermidis RP62A (DSM 28319, clinical isolate from catheter sepsis), and S. aureus (DSM 11823, clinical isolate) were grown in 5 mL LB medium overnight at below-indicated temperatures. The cell concentrations of the overnight cultures were analyzed with Neubauer cell counting and set to 3 × 10^8 cells/mL using GC minimal medium (with 1% (v/v) glycerol and 0.3% (w/v) casamino acids) for K. oxytoca and Caso bouillon (17 g/L casein peptone, 3 g/L soybean peptone, 5 g/L NaCl, 2.5 g/L K2HPO4, and 2.5 g/L glucose) for the remaining strains in the crystal violet assay. Cultures were aliquoted in 96-well plates (180/195 µL for each cavity). Cell-free size-fractionated cell extracts (20 µL) and synthesized peptides (various concentrations, 5 µL) were added to the cultures. MTPs were closed with gas-permeable membranes (Breathe-Easy®, Diversified Biotech, Dedham, MA, USA) and incubated at 37 °C (P. aeruginosa, S. aureus, and S. epidermidis) or 30 °C (K. oxytoca) for 18 h without shaking. Three biological replicates were performed, each with eight technical replicates. Medium controls were performed for normalization. Biofilm formation was monitored and quantified using the crystal violet assay. Following an 18 h incubation period, the cell cultures were removed, and the wells underwent two washes with H2O. Biofilms that developed and adhered to the surfaces were subjected to staining using 200 μL of a 0.1% crystal violet solution (Carl Roth, Karlsruhe, Germany) for 10 min at room temperature (RT). The stained biofilms were left to air dry after eliminating the crystal violet solution through two H2O washes. A total of 200 μL of 96% ethanol was introduced into each stained well to solubilize the dye, and incubation at RT for 15 min followed. Biofilm formation was assessed by measuring the absorbance of resolved crystal violet at 590 nm with the plate reader Spectra max Plus 384 (Molecular Devices, Ismaning; Germany). The screening procedure is depicted in Figure S1.

S. aureus [2] = assay: Growth of planktonic-growing pathogens (turbidity at 600 nm); type: cell-based, Staphylococcus aureus; settings: 18 h; for turbidity (600 nm), S. aureus: 112.5 µg/mL peptide, LB, 80 rpm, 37 °C, mean of 2 biological x 8 technical replicates, control 1.37192917; for reduction of planktonic growth of S. aureus: 112.5 µg/mL, versus control without peptide
Protocol: (§2) In addition, the potential growth-inhibiting effects of synthetic peptides were tested on planktonic-growing pathogens. Again, 3 × 10^8 cells/mL diluted in LB medium were aliquoted in 96-well plates (200 µL for each cavity). Synthetic peptides were added to two selected final concentrations of 3.5 µg/mL and 112.5 µg/mL at the beginning of the experiment. MTPs were closed with gas-permeable membranes and gently shaken at 80 rpm and 37 °C (P. aeruginosa, S. aureus, and S. epidermidis) or 30 °C (K. oxytoca) for 18 h. A comparative endpoint determination (growth control, peptide control IDR-1018, and identified peptides) of the turbidity at 600 nm was measured with plate reader Spectra max Plus 384. An unpaired t-test was conducted as a statistical hypothesis test to determine the significance (p-value) of growth differences.

S. epidermidis RP62A = assay: Biofilm prevention in vitro assay (crystal violet, static); type: cell-based, Staphylococcus epidermidis; settings: 18 h; for effect on S. epidermidis biofilm formation (in words) / reduction of S. epidermidis biofilm formation over concentration range: synthetic peptide 0.4-112.5 µg/mL; for reduction of S. epidermidis biofilm formation over concentration range: maximum or range of reduction
Protocol: as §1

K. oxytoca [3] = assay: Growth of planktonic-growing pathogens (turbidity at 600 nm); type: cell-based, Klebsiella oxytoca; settings: 112.5 µg/mL peptide, LB, 18 h, 80 rpm, 30 °C; mean of 2 biological x 8 technical replicates; control 1.21326667
Protocol: as §2

P. aeruginosa = assay: as above; type: cell-based, Pseudomonas aeruginosa; settings: 18 h; for turbidity (600 nm), P. aeruginosa: 112.5 µg/mL peptide, LB, 80 rpm, 37 °C, mean of 2 biological x 8 technical replicates, control 1.2788369; for reduction of planktonic growth of P. aeruginosa: 112.5 µg/mL, versus control without peptide
Protocol: as §2

S. epidermidis = assay: as above; type: cell-based, Staphylococcus epidermidis; settings: 112.5 µg/mL peptide, LB, 18 h, 80 rpm, 37 °C; mean of 2 biological x 8 technical replicates; control 1.3398
Protocol: as §2

P. aeruginosa PAO1 = assay: Biofilm prevention in vitro assay (crystal violet, static); type: cell-based, Pseudomonas aeruginosa; settings: synthetic peptide 0.4-112.5 µg/mL, 18 h
Protocol: as §1

S. aureus [4] = assay: as above; type: cell-based, Staphylococcus aureus; settings: synthetic peptide 0.4-112.5 µg/mL, 18 h
Protocol: as §1

K. oxytoca M5aI = assay: Dynamic biofilm formation in microfluidic flow cell (Syto9, CLSM); type: cell-based, Klebsiella oxytoca; settings: peptide 10 ng/channel, GC medium, flow 15 µL/h, 24 h, 30 °C, mean ± SD of four biological x four technical replicates; for biofilm thickness: medium control 11 ± 6 µm; for biofilm volume: medium control 112 ± 62 µm^3
Source text: The microfluidic flow cell system comprises a polymethyl methacrylate corpus with a single channel (1 × 8 × 0.1 mm). Two inlets and one outlet exist. A borosilicate glass (24 × 60 × 0.17 mm; Carl Roth, Karlsruhe, Germany) was fixed with the adhesive Black-Seal silicone (Weicon, Münster, Germany). Microliter syringes (Innovative Labor System GmbH, Stützenbach, Germany) were connected via polytetrafluoroethylene (PTFE) tubes (0.3 mm × 0.6 mm) (Bola, Grünsfeld, Germany) with the in- and outlets and clamped into a syringe pump (Model: 220) (KD Scientific, Holliston, MA, USA). The channel was sterilized by rinsing 70% EtOH for 24 h at a flow rate of 20 µL/h. Afterwards, the remaining ethanol was washed out with sterile water at 20 μL/h for 1 h. Subsequently, the channel was equilibrated with GC medium at 20 μL/h for 2 h. Inoculation was conducted with a cell suspension of 1 × 10^9 cells/mL, generated from an overnight culture of K. oxytoca M5aI. Initial cell adhesion was ensured by incubation at 30 °C for 1 h without any flow. Next, the channel was continuously rinsed at 15 μL/h with GC medium injected within the first inlet. The synthetic peptides IDR-1018 (biofilm-preventing control peptide, [47, 48], BiP_Aa_2, BiP_Aa_5, and BiP_Aa_6 were diluted in GC medium to a concentration of 25 µg/mL and injected within the second inlet. Thus, the final peptide concentration was 12.5 µg/mL, corresponding to 10 ng peptide within the 0.8 µL channel. Biofilm formation was conducted at a flow rate of 15 µL/h for 24 h at 30 °C. The biofilm formation of K. oxytoca M5aI was further studied without adding peptides. Four biological replicates were conducted for each treatment.
Biofilms were stained with the fluorescent dye Syto9 (488 nm) (Life Technologie, Carlsbad, CA, USA) and analyzed using the LSM 700 confocal laser scanning microscope (Zeiss, Oberkochen, Germany). Therefore, the microfluidic flow cells were washed with GC medium at 3 µL/min for 15 min. The channel was then filled with a 1:1000 dilution of the fluorescent dye Syto9 and incubated in the dark at RT for 30 min. Dye residues were removed by rinsing GC medium at 3 μL/min for 15 min. Four image stacks were recorded per flow cell with optical sections of 0.9 µm per z-step. The digital image acquisition, three-dimensional reconstruction, and calculation of the biofilm parameters were performed with the software “Zen Black” (version 14.0.22.201) (Zeiss, Oberkochen, Germany) and the microscopy image analysis software “Imaris” (version 9.9.0) (Oxford Instruments, Abingdon, UK).

[5] = Dimerization of peptide with increasing concentration (preliminary results); type: physicochemical
[6] = system: K. oxytoca, P. aeruginosa, S. epidermidis, and S. aureus; assay: Planktonic growth, statements on all pathogens; type: cell-based; settings: 18 h; for effect on planktonic growth (in words), high concentration: 112.5 µg/mL, all strains
Protocol: as §2

biofilm cells = settings: cited from earlier work
Protocol: (§3) The biofilm prevention was assayed parallel to the well-described 12 amino acids’ cationic AMP (VRLIVAVRIWRR), named IDR-1018 [19, 47, 48]. This innate defense component is derived from the natural bovine peptide Bactenecin and was reported to show antibiofilm activity against P. aeruginosa, E. coli, Acinetobacter baumannii, K. pneumoniae, Methicillin-resistant S. aureus, Salmonella Typhimurium, and Burkholderia cenocepacia. The inhibitory activity of IDR-1018 is based on the induced dispersal of cells from biofilms at very low peptide concentrations (0.8 µg/mL). The underlying ...

planktonic cells = settings: weak direct antimicrobial activity on planktonic cells; cited from earlier work
Protocol: as §3

| Sequence | effect on K. oxytoca biofilm formation (in words) (K. oxytoca [1]) | turbidity (600 nm), S. aureus (S. aureus [2]) | reduction of planktonic growth of S. aureus (S. aureus [2]) | effect on S. epidermidis biofilm formation (in words) (S. epidermidis RP62A) | turbidity (600 nm), K. oxytoca (K. oxytoca [3]) | turbidity (600 nm), P. aeruginosa (P. aeruginosa) | reduction of planktonic growth of P. aeruginosa (P. aeruginosa) | turbidity (600 nm), S. epidermidis (S. epidermidis) | effect on P. aeruginosa biofilm formation (in words) (P. aeruginosa PAO1) | effect on S. aureus biofilm formation (in words) (S. aureus [4]) | biofilm thickness (K. oxytoca M5aI) [µm] | biofilm volume (K. oxytoca M5aI) [µm^3] | reduction of K. oxytoca biofilm formation over concentration range (K. oxytoca [1]) | reduction of S. epidermidis biofilm formation over concentration range (S. epidermidis RP62A) | effect on planktonic growth (in words), high concentration [6] | reduction of K. oxytoca biofilm formation at 112.5 µg/mL (K. oxytoca [1]; versus biofilm control (100%)) [%] | other results |
| --- | --- | --- | --- | --- | --- | --- | --- | --- | --- | --- | --- | --- | --- | --- | --- | --- | --- |
| GRTTLYKKVGFFFFF [BiP_Ml_3, synthetic peptide from sORF of M. leidyi EST clone 010_9A] | no significant effect | 1.345 | 1.5–5% | growth increase at low peptide doses | 1.255 | 1.255 | 1.5–5% | 1.367 | no significant effect; also recorded: slight interference | no significant effect; also recorded: could not interfere with biofilm formation | – | – | – | – | – | – | reduction of S. epidermidis biofilm formation at 112.5 µg/mL (S. epidermidis RP62A; synthetic peptide at highest concentration 112.5 µg/mL, versus biofilm control (100%)): 38% |
| QLFCTKLSPT [BiP_Aa_2, synthetic peptide from sORF of A. aurita EST clone 112_6C] | no significant change in biofilm formation until 14.1 µg/mL | 1.304 | 1.5–5% | appeared to reverse with increasing concentrations | 1.204 | 1.2593 | 1.5–5% | 1.368 | negligible impact | negligible impact; also recorded: could not interfere with biofilm formation | 8 ± 3 | 34 ± 12 | up to 43% | 45% | – | – | aggregation with increasing peptide concentration [5]: dimerization |
| THSTMNFELHQRSIQSCSPKLL [BiP_Aa_4, synthetic peptide from sORF of A. aurita EST clone 127_8E] | limited effect | 1.347 | – | – | 1.219 | 1.281 | – | 1.386 | limited effect | limited effect; also recorded: could not interfere with biofilm formation | – | – | – | 23–47% | did not significantly inhibit planktonic growth | – | – |
| TNFTRKFPVINSSPHQWYLKD [BiP_Aa_6, synthetic peptide from sORF of A. aurita EST clone 127_8H] | – | 1.38 | – | – | 1.2508 | 1.284 | – | 1.393 | initially increased and then gradually decreased, approaching control levels | – | ≤ 8 ± 1 | 64 ± 36 | – | 43% | did not significantly inhibit planktonic growth | 26 | reduction of S. aureus biofilm formation over concentration range (S. aureus [4]; maximum or overall reduction): 6–23% |
| VRLIVAVRIWRR [IDR-1018, 12 amino acids' cationic AMP, biofilm-preventing control peptide derived from bovine Bactenecin, reference compound] | – | 1.036 | – | only affected to a minor extent | 1.187 | 1.23 | – | 1.203 | no interference; also recorded: almost unaffected | – | 6 ± 2 | 32 ± 16 | 50% | – | significantly reduced the planktonic growth of all strains | 70 | reduction of K. oxytoca biofilm formation at 3.5 µg/mL (K. oxytoca [1]; synthetic peptide 3.5 µg/mL, versus biofilm control (100%), on average): 30%; effect on planktonic growth (in words), low concentration ([6]; 3.5 µg/mL, all pathogens): no effect was revealed; peptide concentration causing cell death of the biofilm cells (biofilm cells; higher concentrations): 10 µg/mL; peptide concentration inducing dispersal of cells from biofilms (biofilm cells; very low peptide concentrations): 0.8 µg/mL; MIC (planktonic cells): 19 µg/mL |
